What was measured:
HT-22 cells [1] = assay: Protection against cell death (cell viability) induced by glutamate in HT-22 cells; assay type: cell-based; details: for Potency and efficacy of the protective action on cell viability (FIG. 10): glutamate toxicity, compared with methylene blue
Experimental: HT-22 cells (gift from Dr. David Schubert, Salk Institute, San Diego, Calif.) were plated at 4,000 cells per well in 96 well plates and cultured over night. […] At the end of the 24 hours, the medium was removed and the plates were rinsed with PBS and incubated with 10 μM calcein-AM (Invitrogen, Carlsbad, Calif.) in PBS for 20 minutes. […] Cell culture wells treated with bleach before rinsing were used as blank.

HT-22 cells [2] = assay: Protection against ROS production induced by glutamate in HT-22 cells; assay type: cell-based; details: for Potency and efficacy of the protective action on reactive oxygen species production (FIG. 11): compared with methylene blue
HT-22 cells [3] = assay: Protection against mitochondrial membrane potential collapse induced by glutamate in HT-22 cells; assay type: cell-based; details: for Potency and efficacy of the protective action on mitochondrial membrane potential collapse (FIG. 12): compared with methylene blue
[4] = tested on: mitochondrial complex I-III; assay type: biochemical, rat; details: for Inhibition of complex I-III activity: inhibitor alone
Experimental: (§1) Fresh rat heart was removed and placed in ice-cold mitochondrial isolation buffer containing 210 mM mannitol, 70 mM sucrose, 5 mM HEPES, and 1 mM EDTA, pH 7. The heart was homogenized immediately, and the mitochondrial fraction was isolated by differential centrifugation as described previously (Trounce et al., 1996). Mitochondria were stored at −80° C. until subsequent analysis.
(§2) All mitochondrial activity assays were performed according to previous publications with minimal modifications for complex I (Lenaz et al., 2004), complex I-III, complex II, complex III, and II-III (Trounce et al., 1996). […] Complex I activity was monitored by adding NADH to the mix with or without rotenone/antimycin A. The final data were normalized to blank values at time zero. The reaction was monitored in a kinetic spectrophotometer at 340 nm. Complex I activity was measured in arbitrary units and normalized to control levels for statistical analysis. Isolated mitochondria equivalent to 40-200 μg mitochondrial protein was used for each assay, except for assays with inhibitors, when larger amount of mitochondria (3 to 5 folds) were used to ensure that inhibition was distinguishable. Final data were normalized to control levels. For complex I-III activity, the reaction was initiated with the addition of NADH, cyt c was used as final substrate and its reduction was monitored at 550 nm. For assay of complex II-III activity, succinate was added instead of NADH, and the electron transfer to cyt c was performed according to previous publications (Atamna et al., 2008). To test whether the electrons from the reduced form of MB (MBH2) can be transferred to cyt c in mitochondrial lysate, we added 10 μM 2,7-dichlorofluorescin (DCFH, Invitrogen, Carlsbad, Calif.) to the reaction system. Free radicals convert non-fluorescent DCFH to highly fluorescent DCF (Ex, 488 nm, and Em, 530 nm). In the presence of cyt c, which accepts electrons from MBH2, conversion of DCFH to DCF is decreased.

mitochondrial complex I = assay: Mitochondrial complex I activity assay (NADH dehydrogenase); assay type: biochemical, rat
Experimental: as §1, §2

[5] = tested on: mitochondrial complex II-III; assay: Mitochondrial complex II-III activity in extracted mitochondria; assay type: biochemical, rat; details: inhibitor alone
Experimental: as §1
All mitochondrial activity assays were performed according to previous publications with minimal modifications for complex I (Lenaz et al., 2004), complex I-III, complex II, complex III, and II-III (Trounce et al., 1996). […] Complex I activity was monitored by adding NADH to the mix with or without rotenone/antimycin A. The final data were normalized to blank values at time zero. The reaction was monitored in a kinetic spectrophotometer at 340 nm. Complex I activity was measured in arbitrary units and normalized to control levels for statistical analysis. Isolated mitochondria equivalent to 40-200 μg mitochondrial protein was used for each assay, except for assays with inhibitors, when larger amount of mitochondria (3 to 5 folds) were used to ensure that inhibition was distinguishable. Final data were normalized to control levels. For complex I-III activity, the reaction was initiated with the addition of NADH, cyt c was used as final substrate and its reduction was monitored at 550 nm. […]

[6] = Mus musculus, glutamate, HT-22 cells, read-out: Protection against cell death (EC50)
[7] = glutamate, HT-22 cells, read-out: Protection against cell death (EC50)

Compound	EC50 (HT-22 cells [1]; [6]) [µM]	EC50 (HT-22 cells [2]; Mus musculus) [µM]	EC50 (HT-22 cells [3]; Mus musculus) [µM]	Potency and efficacy of the protective action on cell viability (FIG. 10) (HT-22 cells [1]; HT-22 cells)	Potency and efficacy of the protective action on reactive oxygen species production (FIG. 11) (HT-22 cells [2])	Potency and efficacy of the protective action on mitochondrial membrane potential collapse (FIG. 12) (HT-22 cells [3])	other results
Clc1ccc2c(c1)Nc1ccccc1S2 [2-chlorophenothiazine]	0.00457	0.0841	0.0451	–	–	–	–
CC(=O)N1c2ccc(N(C)C)cc2Sc2cc(N(C)C)ccc21 [Acetyl-MB, acetyl-methylene blue]	–	–	–	–	–	–	Ability to enhance electron transfer between complex I and III ([4]; redox center disabled by N-acetylation): completely lost its ability to enhance electron transfer
C1=Cc2ccccc2Nc2ccccc21 [Iminostilbene]	0.189	0.484	0.0617	–	–	–	–
CN(C)CCCN1c2ccccc2Sc2ccc(Cl)cc21 [chlorpromazine]	2.19	2.15	3.27	significantly decreases the potency and efficacy	significantly decrease the potency and efficacy	significantly decrease the potency and efficacy	–
CN(C)CCCN1c2ccccc2CCc2ccccc21 [impramine]	51.9	84.6	29.1	significantly decreases the potency and efficacy	significantly decrease the potency and efficacy	significantly decrease the potency and efficacy	–
Cc1cc2nc3ccc(N(C)C)cc3nc2cc1N.Cl [neutral red]	–	–	–	significantly decrease the potency and efficacy	significantly decrease the potency and efficacy	significantly decrease the potency and efficacy	EC50 (HT-22 cells [1]; [7]): 5.84 µM; EC50 (HT-22 cells [2]): 15.8 µM; EC50 (HT-22 cells [3]): 8.96 µM
c1ccc2c(c1)Nc1ccccc1S2 [phenothiazine]	–	0.0572	0.0212	–	–	–	EC50 (HT-22 cells [1]; Mus musculus, HT-22, read-out: Protection against cell death (EC50)): 0.019 µM
CC(CN1c2ccccc2Sc2ccccc21)N(C)C (stereo not drawn) [promethazine]	2.06	9.69	0.214	significantly decreases the potency and efficacy	significantly decrease the potency and efficacy	significantly decrease the potency and efficacy	–
C=C(C)[C@H]1Cc2c(ccc3c2O[C@@H]2COc4cc(OC)c(OC)cc4[C@@H]2C3=O)O1 [rotenone]	–	–	–	–	–	–	Inhibition of complex I activity (mitochondrial complex I; CoQ1 as substrate): above 95%; Inhibition of complex I activity (mitochondrial complex I; MB as substrate, maximum rotenone concentrations): 26.7%; Inhibition of complex I-III activity [4]: 90%
Cc1cc2nc3ccc(N(C)C)cc3[s+]c2cc1N [toluidine blue]	–	–	–	–	–	–	EC50 (HT-22 cells [1]; [7]): 0.00175 µM; EC50 (HT-22 cells [2]): 0.000106 µM; EC50 (HT-22 cells [3]): 0.00154 µM
antimycin A	–	–	–	–	–	–	Inhibition of complex II-III activity [5]: 80%; Inhibition of complex I-III activity [4]: 70%
